Results from ChEMBL document CHEMBL1132601, “Design, synthesis, and structure-activity relationships of acetylene-based histamine H3 receptor antagonists” (J Med Chem, 1999).

Molecular target: Histamine H3 receptor (Rattus norvegicus, UniProt Q9QYN8)
Experiment: Binding affinity at histamine H3 receptor in rat cortical membranes by [3H]Nalpha-methylhistamine displacement.
Type: cell membranes

Chain of Histamine H3 receptor (Q9QYN8 whole entry): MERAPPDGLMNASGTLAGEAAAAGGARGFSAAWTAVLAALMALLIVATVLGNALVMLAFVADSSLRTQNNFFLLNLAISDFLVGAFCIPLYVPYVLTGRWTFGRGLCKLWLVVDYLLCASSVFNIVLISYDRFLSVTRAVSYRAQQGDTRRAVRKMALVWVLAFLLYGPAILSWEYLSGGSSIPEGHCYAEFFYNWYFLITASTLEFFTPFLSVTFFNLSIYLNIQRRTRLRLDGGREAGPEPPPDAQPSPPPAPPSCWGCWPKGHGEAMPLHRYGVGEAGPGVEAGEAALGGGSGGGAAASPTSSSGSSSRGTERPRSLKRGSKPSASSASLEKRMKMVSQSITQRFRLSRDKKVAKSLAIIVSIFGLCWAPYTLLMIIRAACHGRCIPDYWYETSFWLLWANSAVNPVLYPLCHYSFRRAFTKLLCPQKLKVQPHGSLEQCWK

| Structure (SMILES) | Ki [nM] |
| --- | --- |
| CCCC#CC1CC1c1c[nH]cn1 (stereo not drawn) | 5.1 |
| C(#CCCC1CCCC1)CCc1c[nH]cn1 | 0.9 |
| CC(C)(C)CCC#C[C@@H]1C[C@H]1c1c[nH]cn1 [CIPRALISANT] | 0.12 |
